Source: US20220089600A1, “TGFß INHIBITOR AND PRODRUGS” (FUNDACIÓ INSTITUT DE RECERCA BIOMÈDICA (IRB BARCELONA), priority 2018, published 2022)
One block for each compound: values may come before it.

Key:
[1] = test system: NTCF4-ER^T2 fusion protein in LS174T cells; assay: Co-culture LS174T-NTCF4-ER^T2 gene expression assay; assay type: cell-based; settings: 16h
Procedure: These LS-NE cells were cultured in DMEM supplemented with L-glutamine and 10% fetal bovine serum (Life Technologies) at 37° C. and 5% CO2.
HEK293T cells transduced with pLenti PGK-LigF (puro) or with an equivalent empty vector were co-plated with LS174T-NTCF4-ER^T2 (LS-NE) cells, in a ratio of 1/10 in 6-well plates. Co-cultures were treated with DMSO, 1 μM Z-4-OHT or the prodrug of formula VII at 1 or 10 μM. After 16h, cells were lysed in trizol for RNA extraction (PureLink RNA Mini Kit, Life Technologies) and cDNA preparation (High Capacity cDNA RT kit, Applied Biosysytems). […] Data in FIG. 11 were normalized to the housekeeping gene, and to DMSO controls. Data are the average of technical replicates (+SD) from a single experiment.

[2] = biological target: T1, Cre-ER^T2 fusion protein in MEFs (Homo sapiens, UniProt P03372, G400V/L544A/M543A/V595A); assay: Co-culture MEF recombination assay (mTmG reporter, FACS); assay type: cell-based, mouse
T1 construct: Cre recombinase (fusion partner); host or cells: mouse embryonic fibroblasts from UbC-Cre-ER^T2; mTmG transgenic mice; the other entry of the earlier key: cre (P06956, Recombinase cre)
T1 sequence (P03372 with tags, fused parts or gaps G400V/M543A/L544A/V595A): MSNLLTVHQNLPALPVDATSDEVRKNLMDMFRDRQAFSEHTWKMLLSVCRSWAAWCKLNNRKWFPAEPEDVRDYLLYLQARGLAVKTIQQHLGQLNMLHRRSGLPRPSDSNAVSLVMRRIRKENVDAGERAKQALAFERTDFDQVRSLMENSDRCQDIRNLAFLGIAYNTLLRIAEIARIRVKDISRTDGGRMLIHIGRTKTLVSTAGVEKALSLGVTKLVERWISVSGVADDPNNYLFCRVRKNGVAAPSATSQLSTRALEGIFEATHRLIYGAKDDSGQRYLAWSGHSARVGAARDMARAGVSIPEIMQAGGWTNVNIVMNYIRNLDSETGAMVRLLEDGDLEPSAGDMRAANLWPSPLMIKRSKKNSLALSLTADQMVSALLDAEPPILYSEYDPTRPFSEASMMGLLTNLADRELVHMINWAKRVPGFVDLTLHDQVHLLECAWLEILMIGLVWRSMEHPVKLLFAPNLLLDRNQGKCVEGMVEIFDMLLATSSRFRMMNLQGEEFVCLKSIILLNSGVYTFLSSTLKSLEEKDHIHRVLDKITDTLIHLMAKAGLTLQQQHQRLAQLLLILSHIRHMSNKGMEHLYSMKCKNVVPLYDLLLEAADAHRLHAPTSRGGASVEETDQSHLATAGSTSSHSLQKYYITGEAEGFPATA
From the text: The mouse model carries recombination reporter mTmG (JAX stock: 007676). This system expresses the membrane bound tdTomato (tandem dimer tomato; mT stands for membrane Tomato), which is a red fluorescent protein. Upon recombination with an activated Cre enzyme, the coding sequence for mT as well as a stop codon, being between loxP sites, is excised. […] Effectively this means that in the presence of a Cre enzyme, or in the presence of a 4-OHT activated Cre-ER^T2 fusion protein, the cells stop their production of tdTomato and proceed to express the EGFP; this genetic switch can be efficiently quantified by flow cytometry analysis. The mouse strain expressing mTmG was then crossed to a mouse carrying a Cre-ER^T2 fusion protein in all cells (UbC-Cre-ER^T2; Jax Stock: 008085). From the dual transgenic mouse, as well as from the reporter strain without Cre-ER^T2, MEFs were harvested from 14-day-old embryos. Briefly, pregnant females were sacrificed 14 days after plug formation, uteri were removed, and embryos were dissected: heads and fetal livers were discarded. The rest was minced and digested with trypsin and grown in 10-cm plates with aforementioned supplemented DMEM.
MEF recombination: MTO129, transduced with pLenti PGK-LigF (puro) or with an equivalent empty vector was trypsinized and single cells added onto UbC-Cre-ER^T2; mTmG (or control mTmG-only) MEFs grown in 12-well plates. The next day, either Z-4-OHT or the prodrug of formula VII was added in concentrations ranging from 1000 to 1 nM. Two days later, cells were trypsinized and analyzed by flow cytometry for TdTomato/EGFP fluorescence (Gallios, Beckman Coulter). Fluorescence was analyzed on viable cells in 2 dimensions and scored as percentages in the 4 quadrants. EGFP positive quadrants (Q2 and Q4, with or without TdTomato) were considered recombined and the fraction of the total was calculated. Data are the average (+SD) from two independent experiments.

Cre-ER^T2 fusion protein = biological target: T2, Cre-ER^T2 fusion protein (Homo sapiens, UniProt P03372, G400V/L544A/M543A/V595A); assay: In vivo gene recombination in UbCre-ER^T2; mTmG mice (EGFP immunohistochemistry); set-up: species or system mouse
T2 construct: Cre recombinase (fusion partner); tissue Jax Stock: 008085; host or cells: liver of transgenic UbCre-ER^T2; mTmG mice (transgene product); the other entry of the earlier key: cre (P06956, Recombinase cre)
Procedure: Using the UbCre-ER^T2; mTmG mice described in example 6, we treated these animals with the prodrug of formula VII at 1 or 5 μmol (approximately 0.6 or 3 mg, respectively) or with a vehicle control (oil). Five days after treatment, mice were sacrificed, and the liver was fixed overnight in 10% phosphate-buffered formalin (sigma) and embedded in paraffin, similar to the description of example 3 (FIG. 1).

LigF = biological target: T3, LigF (Sphingobium sp., UniProt P30347); assay: In vitro LigF cleavage of prodrug, HPLC-MS/MS; assay type: biochemical, Sphingobium sp. strain SYK-6; settings: 37° C.
T3 construct: made in house; host or cells: E. coli BL21 (DE3) Rosetta lysS
T3 sequence (P30347 1-257): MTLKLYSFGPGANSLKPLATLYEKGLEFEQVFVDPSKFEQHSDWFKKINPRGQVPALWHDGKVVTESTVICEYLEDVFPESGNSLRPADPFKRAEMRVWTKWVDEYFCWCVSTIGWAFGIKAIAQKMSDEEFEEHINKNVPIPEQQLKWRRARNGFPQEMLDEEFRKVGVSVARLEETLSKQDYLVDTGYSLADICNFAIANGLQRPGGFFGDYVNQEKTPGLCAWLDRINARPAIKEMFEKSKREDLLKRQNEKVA
Procedure: Similar to the in vitro assay in 5.2., the compound of formula VII was diluted from a 30 mM stock solution in DMSO to 50 μM in 20 mM Tris-HCl (pH 7.5), 1 mM glutathione and 15 μg/ml LigF was added. However, the reaction mixture was incubated at 37° C. and the read-out was different: using HPLC-MS/MS. Reaction samples, as well as a control sample without enzyme and Z-4-OHT (4-hydroxytamoxifen) as a standard were diluted 2:3 in MeOH and 2 μl was injected onto a BioBasic C18 column (5 μm, 2.1×150 mm, Thermo; using a Thermo EC Finnigan Mod Micro AS autosamples and Thermo EC Quarternary pump, Finnigan Mod. Surveyor MS chromatograph) with a water-MeOH gradient (60-90% MeOH in 30 min; 90-100% in 5 min; 100 μl/min flow rate). LC-MS coupling was performed with the Advion Triversa Nanomate (Advion BioSciences, Ithaca, N.Y., USA) as the nanoESI source performing nanoelectrospray through chip technology. The Nanomate was attached to an LTQ-FT Ultra mass spectrometer and operated at a spray voltage of 1.7 kV and a delivery pressure of 0.5 psi in positive mode. In a LTQ-FT Ultra (Thermo Scientif) mass spectrometer, analyses were performed using 40V capillary voltage and 120V tube lens voltage. MS/MS was operated in a data-dependent acquisition (DDA) mode and in selected reaction monitoring (SRM) mode. Survey MS scans were acquired in the FT with the resolution (defined at 400 m/z) set to 100,000. Up to six of the most intense ions per scan were fragmented and detected in the linear ion trap. The ion count target value was 1,000,000 for the survey scan and 50,000 for the MS/MS scan. Target ions already selected for MS/MS were dynamically excluded for 30 s. For SRM, maximum injective was set to 400 ms and 2 microscans average.
Data are represented as XIC (extracted ion chromatogram) peak areas of parallel reaction monitoring (PRM) transitions, using QuanBrowser (Xcalibur software 2.0SR2).

human ALK5 = biological target: T4, human ALK5 (Homo sapiens, UniProt P36897); assay: KinaseProfiler enzymatic activity inhibition; assay type: biochemical; settings: KinaseProfiler, 9-point curve, top 10 μM; read-out: Enzyme activity inhibition IC50 (nM) ALK5 (TGFBR1)
T4 construct: purchased Eurofins (Kinase Profiler service)
T4 sequence (P36897 34-503): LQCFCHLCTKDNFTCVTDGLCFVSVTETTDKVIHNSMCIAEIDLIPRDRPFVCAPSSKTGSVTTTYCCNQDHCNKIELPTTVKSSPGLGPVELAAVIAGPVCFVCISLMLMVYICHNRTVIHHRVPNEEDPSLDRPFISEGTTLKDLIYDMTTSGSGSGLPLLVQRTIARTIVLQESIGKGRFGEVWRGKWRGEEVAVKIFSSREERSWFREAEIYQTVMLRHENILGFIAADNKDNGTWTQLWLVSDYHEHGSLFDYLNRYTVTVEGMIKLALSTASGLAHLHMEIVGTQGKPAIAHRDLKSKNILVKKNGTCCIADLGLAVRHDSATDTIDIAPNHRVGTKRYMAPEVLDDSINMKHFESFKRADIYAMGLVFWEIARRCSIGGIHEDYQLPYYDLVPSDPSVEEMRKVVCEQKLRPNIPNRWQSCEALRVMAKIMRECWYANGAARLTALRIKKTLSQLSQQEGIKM
Procedure: Briefly, human ALK5 was incubated with 8 mM MOPS pH 7.0, 0.2 mM EDTA, 1 mM MnCl2, 2 mg/mL casein, 10 mM MgAcetate and [γ-33P-ATP] (specific activity approx. 500 cpm/pmol, concentration as required). The reaction was initiated by the addition of the MgATP mix. After incubation for 40 minutes at room temperature, the reaction was stopped by the addition of a 3% phosphoric acid solution. 10 μL of the reaction was then spotted onto a P30 filtermat and washed three times for 5 minutes in 75 mM phosphoric acid and once in methanol prior to drying and scintillation counting.
Compounds were tested using a 9-point curve with half-Log serial dilutions. The top concentration tested was 10 μM. Test compounds were prepared in 100% DMSO.

MTO129 liver metastases = assay: Mouse liver metastasis initiation/formation assay with MTOs; assay type: in vivo; settings: FIG. 13, 1× dose
From the text: Mouse tumor organoids (MTOs) are derived from compound transgenic mice (conditional mutations in Apc, Kras, Trp53 and Tgfbr2, as well as bearing Lgr5-EGFP/CreER^T2) of the C57BL6/J strain and cultured as described in Tauriello et al. 2018 Nature 554(7693): 538-543. doi: 10.1038/nature25492. Organoids are tumor epithelial cells grown in a 3D matrix where they adopt an organotypic architecture, typically as spheroids with a lumen. In this way, cells retain a relatively normal polarity (which means that the outside surface, inside/luminal surface and cell-cell contacts are individually specialized), which is more physiological than in conventional 2D cell culture.
In all experiments described in present invention MTO129 were used (Tauriello et al. Nature. 2018).
In patients, treatment doses were reduced to 80 to 150 mg b.i.d in a regime of 14 days on-14 days off.
MTOs expressing a luciferase reporter were measured by bioluminescence imaging, using retroorbital injection of 50 μl 15 mg/ml D-luciferin potassium salt (Resem BV). Photons per second from the region spanning thorax/abdomen were quantified and normalized to the measure at the day of injection.
Control mice were treated with 150 μl of vehicle.
In the experiment shown in FIG. 13, potency of the indicated compounds to inhibit metastasis formation was assessed. Mice were treatments with indicated compounds started two days after MTO129 transplantation and continued during two weeks. Mice were sacrificed at 4 weeks post transplantation and liver metastases (LiMs) were counted by eye on fixed livers.

[3] = UbC-Cre-ER^T2, mTmG MEFs with LigF-expressing MTO129, 1000 to 1 nM, two days

Compound: 4-hydroxytamoxifen [4-OHT, reference compound]
transcriptional switch (KRT20 up, ASCL2 down) ([1]; HEK293T negative for LigF, 1 μM): able to induce the transcriptional switch
gene recombination in MEFs (fraction EGFP positive) [2, 3]: dose-dependent gene recombination

Compound: CCC(=C(c1ccc(OCCN(C)C)cc1)c1ccc(OCC(=O)c2ccc(O)c(OC)c2)cc1)c1ccccc1 (racemic) [prodrug of formula VII, 2-(4-(1-(4-(2-(dimethylamino)ethoxy)phenyl)-2-phenylbut-1-en-1-yl)phenoxy)-1-(4-hydroxy-3-methoxyphenyl)ethan-1-one]
gene recombination and EGFP expression in liver (Cre-ER^T2 fusion protein; 1 or 5 μmol, five days after treatment): dose-dependent activation of gene recombination and EGFP expression
gene recombination in peripheral tissues compared to the liver (Cre-ER^T2 fusion protein; Example 7 mouse treatment): lower
transcriptional switch (KRT20 up, ASCL2 down) ([1]; HEK293T-LigF, 10 μM): achieved the same response
gene recombination in MEFs (fraction EGFP positive) [2, 3]: very similar to 4-OHT
gene recombination in MEFs (fraction EGFP positive) ([2]; without LigF etherase (printed: MEFs lacking UbC-ER^T2)): only some recombination at the highest dose
cleavage plateau (LigF; 50 μM, 15 μg/ml LigF): 50%
time to half way to the plateau (LigF; 50 μM, 15 μg/ml LigF): 3 h
time to reach cleavage plateau (LigF; 50 μM, 15 μg/ml LigF): approximately 30 hours
stability in control without LigF (LigF; all other components present): remained intact

Compound: Cc1cccc(-c2nn3c(c2-c2ccnc4ccc(OC(=O)N5CCC(N6CCCCC6)CC5)cc24)CCC3)n1 [prodrug of formula IV, 4-(2-(6-methylpyridin-2-yl)-5,6-dihydro-4H-pyrrolo[1,2-b]pyrazol-3-yl)quinolin-6-yl [1,4′-bipiperidine]-1′-carboxylate]
IC50 (human ALK5): 2280 nM
activity in preventing liver metastasis formation, in words (MTO129 liver metastases): more robustly than galunisertib

Second part, the compound after the results:

IC50 (human ALK5): 320 nM
Compound: Oc1ccc2c(-c3c(-c4ccccn4)nn4c3CCC4)ccnc2c1 [Reference compound 337, 4-(2-pydridin-2-yl-5,6-dihydro-4H-pyrrolo[1,2-b]pyrazol-3-yl)-quinolin-7-ol, reference compound]

IC50 (human ALK5): 371 nM
Compound: Cc1cccc(-c2nn3c(c2-c2ccnc4cc(O)ccc24)CCC3)n1 [Reference compound 338, 4-[2-(methyl-pyridin-2-yl) 5,6-dihydro-4H-pyrrolo[1,2-b]pyrazol-3-yl]-quinolin-7-ol, reference compound]

IC50 (human ALK5): 836 nM
Compound: COc1cc(C(=O)COc2ccc3nccc(-c4c(-c5cccc(C)n5)nn5c4CCC5)c3c2)ccc1O [prodrug of formula III, 1-(4-hydroxy-3-methoxyphenyl)-2-((4-(2-(6-methylpyridin-2-yl)-5,6-dihydro-4H-pyrrolo[1,2-b]pyrazol-3-yl)quinolin-6-yl)oxy)ethan-1-one]
